Numbered stars: 1 amine (or outer) side, 2 acyl side, 3 side chain; on linkers, the order of the positions; unused ones are H or OH. Bridge positions count the residues as written; N and C are the ends. Square brackets hold non-standard residues; d marks the D form. Peptide text beside a SMILES is read from it. ξ: configuration not given here. Tyr(3-Br) = N[C@@H](Cc1ccc(O)c(Br)c1)C(=O)O; Tyr(3-Cl) = N[C@@H](Cc1ccc(O)c(Cl)c1)C(=O)O; X2 = Nc1ccc(C[C@@H](N[*:1])C(=O)[*:2])cc1Br; X3 = Nc1ccc(C[C@@H](N[*:1])C(=O)[*:2])cc1Cl; X1 = Nc1ccc(C[C@@H](N[*:1])C(=O)[*:2])cc1F; Tyr(3-F) = N[C@@H](Cc1ccc(O)c(F)c1)C(=O)O; Thr(3ξ) = CC(O)[C@H](N)C(=O)O
Experiments:
SST2 [1] = biological target: T1, SST2 (Homo sapiens, UniProt P30874); assay: Radioligand binding competition assay against [125I]SS-14, SST2; parameters: expressed in transfected cells; host or cells: CHO-K1 (membrane extracts); conditions: CHO-K1 membrane extracts
T1 sequence (P30874 whole entry): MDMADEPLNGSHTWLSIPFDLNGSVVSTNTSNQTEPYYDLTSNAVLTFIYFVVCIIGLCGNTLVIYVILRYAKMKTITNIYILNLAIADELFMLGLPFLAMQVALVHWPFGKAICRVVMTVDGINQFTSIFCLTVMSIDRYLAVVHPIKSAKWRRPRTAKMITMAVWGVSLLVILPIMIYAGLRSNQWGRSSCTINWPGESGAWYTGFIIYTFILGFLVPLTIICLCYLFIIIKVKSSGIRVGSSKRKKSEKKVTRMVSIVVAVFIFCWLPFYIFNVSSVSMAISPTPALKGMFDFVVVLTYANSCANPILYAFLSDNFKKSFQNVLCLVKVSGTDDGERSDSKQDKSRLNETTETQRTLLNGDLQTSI
Description: (§1) Reference values thus obtained were compared to historical values obtained from the same receptor and used to validate the experimental session. […] For replicate determinations, the maximum variability tolerated in the test was ±20% around the average of replicates.
(§2) For the SST2 assay, membrane extracts from CHO-K1 cells (accession number NP_001041.1) were used. For the SST5 assay, membrane extracts from CHO-K1 cells (accession number NP_001044.1) were used.
(§3) Nonspecific binding was determined by co-incubation with 200-fold excess of the cold competitor […]. The samples were incubated at a final volume of 0.1 mL at a temperature and for a duration optimized for each receptor and then filtered over filter plates. Filters were washed six times with 0.5 mL of ice-cold washing buffer (optimized for each receptor) and 50 μL of Microscint™ 20 (Packard) were added in each well. The plates were incubated 15 minutes on an orbital shaker and then counted with a TopCount™ for 1 min/well.

GH3 cells = assay: Inhibition of GH release from GH3 cells (ELISA); assay type: cell-based, rat; conditions: 72 hours, in comparison to untreated GH3 cells
Description: (§4) All compounds were studied at concentrations of 5 nM and 10 nM; untreated cell controls were also studied. A biological duplicate was reproduced for each concentration of each drug. The treatment exposure period was 72 h. At the 72 h time-point, cell supernatant was collected and deposited into 1.5 mL test tubes that were then centrifuged at 13,400 rpm for 5 minutes to remove any cell residues. The samples were stored at −80° C. until the time of analysis.
GH levels in the supernatant were quantified using a Sandwich ELISA assay (Millipore Rat/Mouse Growth Hormone ELISA kit #EZRMGH-45K) according to the manufacturer's instructions. This method involved the initial capture of supernatant rat GH to the wells of a microtiter plate coated by a pre-titered amount of anti-Growth Hormone polyclonal antibodies. Unbound GH was washed away and then a second biotinylated anti-GH polyclonal antibody was bound to the captured GH molecules. Unbound GH was again washed away and there followed a step of conjugation of horseradish peroxidase to the immobilized biotinylated antibodies. After a final wash step, immobilized antibody-enzyme conjugates were quantified using horseradish peroxidase activities in the presence of the substrate 3,3′,5,5′-tetramethylbenzidine. The enzyme activity was measured spectrophotometrically. Concentrations of rat GH were derived by interpolation from a reference curve generated in the same assay with reference standards of known concentrations of rat GH.

AtT-20 cells = assay: Inhibition of ACTH release from AtT-20 cells (ELISA); assay type: cell-based, mouse; conditions: 72 hours, in comparison to untreated AtT-20 cells
Description: AtT-20 cells were seeded in 24-well plates (20,000 cells/well) in complete culture medium and incubated overnight at standard incubator conditions (37° C., 5% CO2) to promote adhesion.
as §4
ACTH levels were quantified using a Sandwich-ELISA technique ((Abcam Mouse/Rat ACTH ELISA Kit #ab263880) according to the manufacturer's instructions. Samples and standards were added individually to the wells, followed by the antibody mix. After incubation, the wells were washed to remove unbound material, and development solution was added, which was catalysed, and the reaction was subsequently stopped. The signal was generated proportionally to the amount of bound analyte and the intensity was measured at 450 nm. Results are shown in Table 8 and in FIG. 4A-4E.

SST5 = biological target: T2, SST5 (Homo sapiens, UniProt P35346); assay: Radioligand binding competition assay against [125I]SS-14, SST5; conditions: CHO-K1 membrane extracts
T2 construct: expressed in transfected cells; host or cells: CHO-K1 (membrane extracts)
T2 sequence (P35346 whole entry): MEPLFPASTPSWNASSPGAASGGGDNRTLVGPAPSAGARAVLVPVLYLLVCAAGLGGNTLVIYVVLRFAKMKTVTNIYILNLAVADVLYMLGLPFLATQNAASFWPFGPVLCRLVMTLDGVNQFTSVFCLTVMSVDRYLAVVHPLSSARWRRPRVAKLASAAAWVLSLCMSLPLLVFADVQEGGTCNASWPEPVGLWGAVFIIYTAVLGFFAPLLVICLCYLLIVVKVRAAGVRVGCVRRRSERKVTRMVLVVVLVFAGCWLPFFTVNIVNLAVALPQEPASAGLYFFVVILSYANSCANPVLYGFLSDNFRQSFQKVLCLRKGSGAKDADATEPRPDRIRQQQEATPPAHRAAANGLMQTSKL
Description: as §1, §2, §3

NT-3 cells [2] = assay: Inhibition of insulin release from NT-3 cells (ELISA); assay type: cell-based, human; conditions: 5 days, in comparison to untreated NT-3 cells
Description: For the study, 24-well plates were coated with 1 mg/ml of human placenta-derived type IV collagen in 950 μL of PBS) and fully dried. NT3 cells were seeded at a density of 20,000 cells/well in complete culture medium (0.5 ml), including growth factors and incubated overnight at 37° C., with 5% CO2.
All drugs were administered at 5 nM and 10 nM and biological duplicates were studied. The treatment exposure period was 5 days. Untreated cell controls were also studied. After 5 days, the supernatants were collected and deposited into 1.5 ml test tubes that were then centrifuged at 13,400 rpm for 5 minutes to remove any cell residue. The samples were stored at −80° C. until the time of analysis.
Secreted insulin levels in the supernatant were studied using a Sandwich-ELISA method (Elabscience® Human Insulin ELISA Kit #E-EL-H2665) according to the manufacturer's instructions. A micro-ELISA plate was pre-coated with an antibody specific to human insulin. Samples or Standards were added to the micro-ELISA plate wells and combined with the specific antibody. Then a biotinylated detection antibody specific for human insulin and Avidin-Horseradish Peroxidase (HRP) conjugate were added successively to each micro plate well, incubated and then washed. Substrate solution was added to each well. Only those wells that contain human insulin, biotinylated detection antibody and Avidin-HRP conjugate appear blue in color. The enzyme-substrate reaction was terminated by the addition of stop solution. The optical density (OD) was measured spectrophotometrically at a wavelength of 450 nm±2 nm, and the concentration of human insulin was then derived from the standard curve.

SST2 [3] = biological target: T1, SST2; assay: cAMP HTRF assay; assay type: cell-based; parameters: expressed in transfected cells; host or cells: CHO-K1; conditions: CHO-K1 cells expressing SST2, forskolin, 30 min
Description: as §1
CHO-K1 cells (accession number NP_001041.1) expressing human recombinant receptor SST2 were grown prior to the test in media without antibiotic and were detached by gentle flushing with PBS-EDTA (5 mM EDTA).
In a 96-well plate, 12 μl of cells were mixed with 6 μl of the test compound at increasing concentrations and 6 μl of forskolin, then incubated for 30 min at room temperature. The final concentrations of test compound were 0.003 nM; 0.01 nM; 0.03 nM; 0.1 nM; 0.3 nM; 1 nM; 3 nM; 10 nM; 30 nM; and 100 nM. After addition of lysis buffer containing cAMP-d2 and anti-cAMP cryptate detection reagents, the plates were incubated for one hour at room temperature, and fluorescence ratios were measured using an HTRF kit according to the manufacturer specification. The results are shown below in Table 1 and in FIGS. 1A-1D.

NT-3 cells [4] = assay: Inhibition of proliferation of NT-3 cells (WST-1 assay); assay type: cell-based, human; conditions: 5 nM, 5 days, in comparison to untreated NT-3 cells
Text: The water-soluble tetrazolium-1 (WST-1) assay is a standard method for assessing cell viability and proliferation in vitro. The WST-1 assay method is based on the cleavage of tetrazolium salts in culture medium to the dye, formazan, by active mitochondrial enzymes. As viable cell numbers change, so too does the action of mitochondrial dehydrogenases and cleavage of tetrazolium salts. The formation of formazan in the cell medium can be assayed spectrophotometrically as a measure of the number of living cells in the sample well. The effect of various compounds on the cell viability or proliferation rates can be measured as compared with controls or Standards.
All compounds were studied at a dose of 5 nM, and appropriate untreated controls were included.
NT-3 cells were seeded in complete RPMI-1640 medium (100 μl) into a 96-well microplate (20.000 cells/well). This was incubated at 37° C. in 5% CO2 to allow cells to adhere. Cells were treated with the test compounds at a concentration of 5 nM for a period of 5 days without changing the medium and without adding fresh compounds. […] The absorbance of the formazan dye was measured at 450 nm and 690 nm using a microplate reader. […] Average absorbance values were calculated for each group at 450 and 690 nm wavelengths and corrected for blank values. […]

With CC(C)[C@@H]1NC(=O)[C@H](CCCCN)NC(=O)[C@@H](Cc2c[nH]c3ccccc23)NC(=O)[C@H](Cc2ccc(O)c(Cl)c2)NC(=O)[C@H](NC(=O)[C@H](N)Cc2ccc(N)c(I)c2)CSSC[C@H](C(=O)N[C@H](C(N)=O)C(C)O)NC1=O (single isomer, unassigned) [Compound 1, (4-amino-3-I)-D-Phe-c[Cys-(3-Cl)-Tyr-D-Trp-Lys-Val-Cys]-Thr-NH2] the IC50 (SST2 [1]; Table 2, first assay (Day 1)) was 0.37 nM.

With CC(C)[C@@H]1NC(=O)[C@H](CCCCN)NC(=O)[C@@H](Cc2c[nH]c3ccccc23)NC(=O)[C@H](Cc2ccc(O)c(Cl)c2)NC(=O)[C@H](NC(=O)[C@H](N)Cc2ccc(N)c(I)c2)CSSC[C@H](C(=O)N[C@H](C(N)=O)C(C)O)NC1=O (single isomer, unassigned) [Compound 2, (4-amino-3-Cl)-D-Phe-c[Cys-(3-I)-Tyr-D-Trp-Lys-Val-Cys]-Thr-NH2] the IC50 (SST2 [1]; Table 2, first assay (Day 1)) was 0.74 nM.

For CC(C)[C@@H]1NC(=O)[C@H](CCCCN)NC(=O)[C@@H](Cc2c[nH]c3ccccc23)NC(=O)[C@H](Cc2ccc(O)c(Cl)c2)NC(=O)[C@H](NC(=O)[C@H](N)Cc2ccc(N)c(Cl)c2)CSSC[C@H](C(=O)N[C@H](C(N)=O)C(C)O)NC1=O (stereo partly drawn) [Compound 3, (4-amino-3-Cl)-D-Phe-c[Cys-(3-Cl)-Tyr-D-Trp-Lys-Val-Cys]-Thr-NH2] (H-[X3][dC][Tyr(3-Cl)][dW]KV[dC][Thr(3ξ)]-NH2; disulfide 2-7), the IC50 (SST2 [1]; Table 3, second assay (Day 2)) was 0.48 nM, the “Fold Change in Measured GH” value (GH3 cells; 5 nM) was 1.04 and the “Fold Change in Measured GH” value (GH3 cells; 10 nM) was 1.02. For the same molecule, the “Fold Change in Measured ACTH” value (AtT-20 cells; 5 nM) was 0.68, the “Fold Change in Measured ACTH” value (AtT-20 cells; 10 nM) was 0.76 and the IC50 (SST5; Table 6, second assay (Day 2)) was 0.86 nM. For the same molecule, the “Fold Change in Measured Insulin” value (NT-3 cells [2]; 5 nM) was 0.62, the “Fold Change in Measured Insulin” value (NT-3 cells [2]; 10 nM) was 0.56 and the EC50 (SST2 [3]) was 0.25 nM.

With CC(C)[C@@H]1NC(=O)[C@H](CCCCN)NC(=O)[C@@H](Cc2c[nH]c3ccccc23)NC(=O)[C@H](Cc2ccc(O)c(F)c2)NC(=O)[C@H](NC(=O)[C@H](N)Cc2ccc(N)c(F)c2)CSSC[C@H](C(=O)N[C@H](C(N)=O)C(C)O)NC1=O (stereo partly drawn) [Compound 4, (4-amino-3-F)-D-Phe-c[Cys-(3-F)-Tyr-D-Trp-Lys-Val-Cys]-Thr-NH2] (H-[X1][dC][Tyr(3-F)][dW]KV[dC][Thr(3ξ)]-NH2; disulfide 2-7) the “Fold Change in Proliferation” value (NT-3 cells [4]) was 0.93, the IC50 (SST2 [1]; Table 4, third assay (Day 3)) was 2.6 nM and the “Fold Change in Measured GH” value (GH3 cells; 5 nM) was 0.94. For the same molecule, the “Fold Change in Measured GH” value (GH3 cells; 10 nM) was 0.76, the “Fold Change in Measured ACTH” value (AtT-20 cells; 5 nM) was 0.37 and the “Fold Change in Measured ACTH” value (AtT-20 cells; 10 nM) was 0.37. For the same molecule, the IC50 (SST5; Table 7, third assay (Day 3)) was 3.41 nM, the “Fold Change in Measured Insulin” value (NT-3 cells [2]; 5 nM) was 0.09 and the “Fold Change in Measured Insulin” value (NT-3 cells [2]; 10 nM) was 0.10. For the same molecule, the EC50 (SST2 [3]) was 1.91 nM.

For CC(C)[C@@H]1NC(=O)[C@H](CCCCN)NC(=O)[C@@H](Cc2c[nH]c3ccccc23)NC(=O)[C@H](Cc2ccc(O)c(Br)c2)NC(=O)[C@@H](NC(=O)[C@H](N)Cc2ccc(N)c(Br)c2)CSSC[C@@H](C(=O)N[C@H](C(N)=O)[C@@H](C)O)NC1=O [Compound 5, (4-amino-3-Br)-D-Phe-c[Cys-(3-Br)-Tyr-D-Trp-Lys-Val-Cys]-Thr-NH2] (H-[X2]C[Tyr(3-Br)][dW]KVCT-NH2; disulfide 2-7), the “Fold Change in Proliferation” value (NT-3 cells [4]) was 0.52, the IC50 (SST2 [1]; Table 4, third assay (Day 3)) was 0.54 nM and the “Fold Change in Measured GH” value (GH3 cells; 5 nM) was 0.72. For the same molecule, the “Fold Change in Measured GH” value (GH3 cells; 10 nM) was 0.75, the “Fold Change in Measured ACTH” value (AtT-20 cells; 5 nM) was 0.68 and the “Fold Change in Measured ACTH” value (AtT-20 cells; 10 nM) was 0.77. The IC50 (SST5; Table 7, third assay (Day 3)) was 0.79 nM, the “Fold Change in Measured Insulin” value (NT-3 cells [2]; 5 nM) was 0.12 and the “Fold Change in Measured Insulin” value (NT-3 cells [2]; 10 nM) was 0.18. It also gave an EC50 (SST2 [3]) of 0.16 nM.
